Here are results for 30 compounds from patent publication US10988477B2 (Merck Patent GmbH, priority 2018, dated 2021).

Where only a bound is given, the exact number is not on record here.

The target of one experiment is GCN2 kinase (Homo sapiens, UniProt Q9P2K8). The experiment can be described thus: GCN2 enzyme inhibition assay (Transcreener ADP2 fluorescence polarization). In kind it is biochemical. Particulars: Enzyme activity for compounds of Formula IV; Ki(app), 280 μM ATP, 25° C. The method, boiled down:
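FP detection of ADP (antibody plus Alexa633 tracer) after a 1 h, 25 °C kinase reaction. Enzyme 4 nM, ATP 280 μM, (RS)7 peptide 200 μM, Tris pH 7.5 buffer with MgCl2 and DTT. Percent inhibition fitted by non-linear tight-binding algorithm for IC50 and Ki(app).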
(Fluorescence polarisation rises when a labelled molecule tumbles more slowly, as on binding a larger partner.)

For experiment [1], the target named is intracellular GCN2 (phosphorylation of the GCN2 substrate eIF2α) (Homo sapiens, UniProt Q9P2K8). Briefly: GCN2 cellular inhibition assay (AlphaScreen SureFire P-eIF2α Ser51, borrelidin-treated U2OS cells). In kind it is cell-based. The following applies: compounds of Formula IV; biomarker assay, phosphorylated eIF2α Ser51 in borrelidin-treated U2OS cells. The method, boiled down:
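U2OS cells adhered overnight, then treated with compounds (4-fold serial dilutions from 40 μM final) plus borrelidin 10 μM final for 1 h at 37 °C. Lysate eIF2α Ser51 phosphorylation measured by AlphaScreen SureFire. Percent inhibition calculated relative to borrelidin-only wells.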
For orientation: In Alpha technology, singlet oxygen from a donor bead excites a nearby acceptor bead.

Sequence of intracellular GCN2 (phosphorylation of the GCN2 substrate eIF2α) (Q9P2K8 whole entry): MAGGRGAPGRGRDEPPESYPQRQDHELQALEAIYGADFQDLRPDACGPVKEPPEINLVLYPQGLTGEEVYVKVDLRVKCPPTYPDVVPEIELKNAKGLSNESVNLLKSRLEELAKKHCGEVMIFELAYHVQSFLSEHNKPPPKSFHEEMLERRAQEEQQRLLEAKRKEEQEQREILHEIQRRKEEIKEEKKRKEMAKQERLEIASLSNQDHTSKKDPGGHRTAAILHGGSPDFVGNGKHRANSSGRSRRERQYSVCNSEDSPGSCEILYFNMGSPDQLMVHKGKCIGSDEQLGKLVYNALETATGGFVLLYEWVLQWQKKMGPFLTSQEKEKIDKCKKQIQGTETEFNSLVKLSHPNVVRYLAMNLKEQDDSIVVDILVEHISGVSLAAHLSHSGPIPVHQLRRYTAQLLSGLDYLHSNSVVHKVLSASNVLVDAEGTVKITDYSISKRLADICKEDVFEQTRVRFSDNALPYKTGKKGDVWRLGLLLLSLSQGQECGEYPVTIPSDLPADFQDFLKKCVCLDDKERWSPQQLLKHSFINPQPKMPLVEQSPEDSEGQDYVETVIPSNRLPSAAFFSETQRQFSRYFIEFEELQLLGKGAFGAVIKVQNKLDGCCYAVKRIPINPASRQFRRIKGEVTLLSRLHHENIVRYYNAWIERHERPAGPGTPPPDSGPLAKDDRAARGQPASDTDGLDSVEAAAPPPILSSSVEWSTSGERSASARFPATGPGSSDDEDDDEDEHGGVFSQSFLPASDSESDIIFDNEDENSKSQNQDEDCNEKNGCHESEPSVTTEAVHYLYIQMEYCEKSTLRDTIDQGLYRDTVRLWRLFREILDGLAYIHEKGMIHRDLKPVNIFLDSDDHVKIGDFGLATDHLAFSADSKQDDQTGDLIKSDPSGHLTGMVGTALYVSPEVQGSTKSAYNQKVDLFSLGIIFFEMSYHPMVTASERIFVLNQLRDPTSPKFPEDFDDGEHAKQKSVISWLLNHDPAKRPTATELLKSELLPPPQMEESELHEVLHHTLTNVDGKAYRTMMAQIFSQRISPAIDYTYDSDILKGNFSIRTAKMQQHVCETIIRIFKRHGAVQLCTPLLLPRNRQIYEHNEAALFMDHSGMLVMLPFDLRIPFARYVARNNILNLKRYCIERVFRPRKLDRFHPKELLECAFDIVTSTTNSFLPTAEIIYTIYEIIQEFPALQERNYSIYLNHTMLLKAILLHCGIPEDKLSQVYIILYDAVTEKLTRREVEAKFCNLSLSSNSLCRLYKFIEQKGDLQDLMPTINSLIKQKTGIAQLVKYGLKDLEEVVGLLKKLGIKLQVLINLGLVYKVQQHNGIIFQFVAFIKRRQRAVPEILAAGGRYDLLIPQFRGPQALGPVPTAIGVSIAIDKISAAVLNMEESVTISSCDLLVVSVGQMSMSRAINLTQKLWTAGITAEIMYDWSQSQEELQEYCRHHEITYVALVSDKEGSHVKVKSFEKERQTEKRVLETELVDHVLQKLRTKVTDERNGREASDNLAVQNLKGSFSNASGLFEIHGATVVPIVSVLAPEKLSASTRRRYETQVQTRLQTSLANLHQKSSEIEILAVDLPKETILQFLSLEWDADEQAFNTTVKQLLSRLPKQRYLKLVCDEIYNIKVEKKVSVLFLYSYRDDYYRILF
Sequence of GCN2 kinase (Q9P2K8 whole entry): as above

Usually IC50 stands for the concentration needed to halve the response being measured. In turn, `CN([C@H]1CCN(c2ccnc(-c3cnc4cnc(C(F)F)cn34)n2)C1)S(C)(=O)=O` [IV-125, (S)—N-(1-(2-(6-(Difluoromethyl)imidazo[1,2-a]pyrazin-3-yl)pyrimidin-4-yl)pyrrolidin-3-yl)-N-methylmethanesulfonamide] displayed a Ki on GCN2 kinase of 0.1 to 1 µM. The IC50 in experiment [1] is above 5 µM.

Take `CS(=O)(=O)N1C2CCC1CN(c1ccnc(-c3cnc4cnc(C(F)F)cn34)n1)C2` [IV-126, 6-(Difluoromethyl)-3-(4-(8-(methylsulfonyl)-3,8-diazabicyclo[3.2.1]octan-3-yl)pyrimidin-2-yl)imidazo[1,2-a]pyrazine]: the Ki at GCN2 kinase lay in the range of 0.1 to 1 µM. Moreover, the IC50 in experiment [1] was above 5 µM.

Turning to `NC(=O)C1COCCN(c2ccnc(-c3cnc4cnc(C(F)F)cn34)n2)C1` (stereo not drawn) [IV-128, 4-(2-(6-(Difluoromethyl)imidazo[1,2-a]pyrazin-3-yl)pyrimidin-4-yl)-1,4-oxazepane-6-carboxamide], the Ki on GCN2 kinase was in the range of 0.1 to 1 µM. In experiment [1], this compound gave an IC50 above 5 µM.

Compound `C[C@@H]1CCCN(c2ccnc(-c3cnc4cnc(C(F)F)cn34)n2)C1` [IV-129, (R)-6-(Difluoromethyl)-3-(4-(3-methylpiperidin-1-yl)pyrimidin-2-yl)imidazo[1,2-a]pyrazine] showed a Ki at GCN2 kinase of 0.1 to 1 µM. In addition, the IC50 in experiment [1] is above 5 µM.

In turn, `FC(F)c1cn2c(-c3nccc(N4CCCC5CCCC54)n3)cnc2cn1` (stereo not drawn) [IV-130, 6-(Difluoromethyl)-3-(4-(octahydro-1H-cyclopenta[b]pyridin-1-yl)pyrimidin-2-yl)imidazo[1,2-a]pyrazine] had a Ki on GCN2 kinase of 0.1 to 1 µM. Further, the IC50 in experiment [1] was above 5 µM.

For the compound `CC(C)(C)OC(=O)N1CCC2CCN(c3ccnc(-c4cnc5cnc(C(F)F)cn45)n3)CC21` (stereo not drawn) [IV-132, tert-Butyl 6-(2-(6-(difluoromethyl)imidazo[1,2-a]pyrazin-3-yl)pyrimidin-4-yl)octahydro-1H-pyrrolo[2,3-c]pyridine-1-carboxylate], the Ki at GCN2 kinase fell in the range of 0.1 to 1 µM. Also, in experiment [1], the IC50 was above 5 µM.

`CC1CCCN(c2ccnc(-c3cnc4cnc(C(F)F)cn34)n2)C1C` (stereo not drawn) [IV-134, 6-(Difluoromethyl)-3-(4-(2,3-dimethylpiperidin-1-yl)pyrimidin-2-yl)imidazo[1,2-a]pyrazine] showed a Ki at GCN2 kinase of 0.1 to 1 µM. In experiment [1], this compound registered an IC50 above 5 µM.

On GCN2 kinase, `FC(F)c1cn2c(-c3nccc(N4CCCC5CC54)n3)cnc2cn1` (stereo not drawn) [IV-135, 3-(4-(2-Azabicyclo[4.1.0]heptan-2-yl)pyrimidin-2-yl)-6-(difluoromethyl)imidazo[1,2-a]pyrazine] displayed a Ki of 0.1 to 1 µM. The IC50 in experiment [1] is above 5 µM.

As to `OC[C@H]1CCCCN1c1ccnc(-c2cnc3cnc(C(F)F)cn23)n1` [IV-136, (R)-(1-(2-(6-(Difluoromethyl)imidazo[1,2-a]pyrazin-3-yl)pyrimidin-4-yl)piperidin-2-yl)methanol], the Ki on GCN2 kinase fell in the range of 0.1 to 1 µM. In experiment [1], this compound showed an IC50 above 5 µM.

On to `C[C@H]1CCCN(c2ccnc(-c3cnc4cnc(C(F)F)cn34)n2)C1` [IV-137, (S)-6-(Difluoromethyl)-3-(4-(3-methylpiperidin-1-yl)pyrimidin-2-yl)imidazo[1,2-a]pyrazine], for which the Ki on GCN2 kinase lay in the range of 0.1 to 1 µM. This compound registered an IC50 in experiment [1] above 5 µM.

On to `OC[C@@H]1CCCN(c2ccnc(-c3cnc4cnc(C(F)F)cn34)n2)C1` [IV-138, (R)-(1-(2-(6-(Difluoromethyl)imidazo[1,2-a]pyrazin-3-yl)pyrimidin-4-yl)piperidin-3-yl)methanol], for which the Ki at GCN2 kinase fell in the range of 0.1 to 1 µM. Further, the IC50 in experiment [1] is above 5 µM.

Take `O=C(C1CCCN(c2ccnc(-c3cnc4cnc(C(F)F)cn34)n2)C1)N1CCNCC1` (stereo not drawn) [IV-139, (1-(2-(6-(Difluoromethyl)imidazo[1,2-a]pyrazin-3-yl)pyrimidin-4-yl)piperidin-3-yl)(piperazin-1-yl)methanone]: on GCN2 kinase, the Ki was in the range of 0.1 to 1 µM. The IC50 in experiment [1] was above 5 µM.

The compound `FC(F)c1cn2c(-c3nccc(N4CCC5(CCNCC5)C4)n3)cnc2cn1` [IV-140, 2-(2-(6-(Difluoromethyl)imidazo[1,2-a]pyrazin-3-yl)pyrimidin-4-yl)-2,8-diazaspiro[4.5]decane] registered a Ki on GCN2 kinase of 0.1 to 1 µM. The compound further had an IC50 in experiment [1] above 5 µM.

On to `CS(C)(=O)=NC1CCCN(c2ccnc(-c3cnc4cnc(C(F)F)cn34)n2)C1` (stereo not drawn) [IV-141, ((1-(2-(6-(Difluoromethyl)imidazo[1,2-a]pyrazin-3-yl)pyrimidin-4-yl)piperidin-3-yl)imino)dimethyl-λ^6-sulfanone], for which the Ki at GCN2 kinase was in the range of 0.1 to 1 µM. The compound also returned an IC50 in experiment [1] above 5 µM.

`OC[C@H]1CCCN(c2ccnc(-c3cnc4cnc(C(F)F)cn34)n2)C1` [IV-142, (S)-(1-(2-(6-(Difluoromethyl)imidazo[1,2-a]pyrazin-3-yl)pyrimidin-4-yl)piperidin-3-yl)methanol]: the Ki at GCN2 kinase is 0.1 to 1 µM. Also, the IC50 in experiment [1] was above 5 µM.

With `NCC1CCCN(c2ccnc(-c3cnc4cnc(C(F)F)cn34)n2)C1` (stereo not drawn) [IV-143, (1-(2-(6-(Difluoromethyl)imidazo[1,2-a]pyrazin-3-yl)pyrimidin-4-yl)piperidin-3-yl)methanamine], the Ki at GCN2 kinase lay within 0.1 to 1 µM. For the same compound, the IC50 in experiment [1] is above 5 µM.

With `CS(=O)(=O)N1CCC2CCN(c3ccnc(-c4cnc5cnc(C(F)F)cn45)n3)CC21` (stereo not drawn) [IV-144, 6-(Difluoromethyl)-3-(4-(1-(methylsulfonyl)octahydro-6H-pyrrolo[2,3-a]pyridin-6-yl)pyrimidin-2-yl)imidazo[1,2-a]pyrazine], the Ki on GCN2 kinase was 0.1 to 1 µM. In addition, in experiment [1], the IC50 lay within 0.5 to 5 µM.

At GCN2 kinase, `CS(=O)(=O)N1CCC2(CCN(c3ccnc(-c4cnc5cnc(C(F)F)cn45)n3)C2)CC1` [IV-145, 2-(2-(6-(Difluoromethyl)imidazo[1,2-a]pyrazin-3-yl)pyrimidin-4-yl)-8-(methylsulfonyl)-2,8-diazaspiro[4.5]decane] returned a Ki of 0.1 to 1 µM. The IC50 in experiment [1] is above 5 µM.

For the compound `CS(=O)(=O)NCc1cccc(-c2ccnc(-c3cnc4cnc(C(F)F)cn34)n2)c1` [IV-146, N-(3-(2-(6-(Difluoromethyl)imidazo[1,2-a]pyrazin-3-yl)pyrimidin-4-yl)benzyl)methanesulfonamide], the Ki at GCN2 kinase lay in the range of 0.1 to 1 µM. The same compound returned a half-maximal inhibitory concentration (IC50) in experiment [1] above 5 µM.

On GCN2 kinase, `CS(=O)(=O)Nc1cccc(-c2ccnc(-c3cnc4cnc(C(F)F)cn34)n2)c1` [IV-147, N-(3-(2-(6-(Difluoromethyl)imidazo[1,2-a]pyrazin-3-yl)pyrimidin-4-yl)phenyl)methanesulfonamide] had a Ki of 0.1 to 1 µM. The compound also had an IC50 in experiment [1] above 5 µM.

Compound `NCS(=O)(=O)c1cccc(-c2ccnc(-c3cnc4cnc(C(F)F)cn34)n2)c1` [IV-148, ((3-(2-(6-(Difluoromethyl)imidazo[1,2-a]pyrazin-3-yl)pyrimidin-4-yl)phenyl)sulfonyl)methanamine] gave a Ki on GCN2 kinase of 0.1 to 1 µM. Besides, the IC50 in experiment [1] is above 5 µM.

`O=C(c1cccc(-c2ccnc(-c3cnc4cnc(C(F)F)cn34)n2)c1)N1CCNCC1` [IV-150, (3-(2-(6-(Difluoromethyl)imidazo[1,2-a]pyrazin-3-yl)pyrimidin-4-yl)phenyl)(piperazin-1-yl)methanone] registered a Ki at GCN2 kinase of 0.1 to 1 µM. The compound further displayed an IC50 in experiment [1] above 5 µM.

`CS(=O)(=O)NCC1CCCN(c2ccnc(-c3cnc4cnc(C(F)F)cn34)n2)C1` (stereo not drawn) [IV-152, N-((1-(2-(6-(Difluoromethyl)imidazo[1,2-a]pyrazin-3-yl)pyrimidin-4-yl)piperidin-3-yl)methyl)methanesulfonamide] gave a Ki on GCN2 kinase of 0.1 to 1 µM. This compound showed an IC50 in experiment [1] above 5 µM.

The compound `CCn1cc(-c2ccnc(-c3cnc4cnc(C(F)F)cn34)n2)cn1` [IV-154, 6-(Difluoromethyl)-3-(4-(1-ethyl-1H-pyrazol-4-yl)pyrimidin-2-yl)imidazo[1,2-a]pyrazine] had a Ki on GCN2 kinase of 0.1 to 1 µM. In addition, the IC50 in experiment [1] is above 5 µM.

On GCN2 kinase, `NC(=O)Cc1cccc(-c2ccnc(-c3cnc4cnc(C(F)F)cn34)n2)c1` [IV-155, 2-(3-(2-(6-(Difluoromethyl)imidazo[1,2-a]pyrazin-3-yl)pyrimidin-4-yl)phenyl)acetamide] registered a Ki of 0.1 to 1 µM. In addition, the IC50 in experiment [1] was above 5 µM.

Take `CC(=O)N1CC=C(c2ccnc(-c3cnc4cnc(C(F)F)cn34)n2)CC1` [IV-156, 1-(4-(2-(6-(Difluoromethyl)imidazo[1,2-a]pyrazin-3-yl)pyrimidin-4-yl)-3,6-dihydropyridin-1(2H)-yl)ethan-1-one]: at GCN2 kinase, the Ki lay within 0.1 to 1 µM. In experiment [1], this compound yielded an IC50 above 5 µM.

Regarding `N#CCc1cccc(-c2ccnc(-c3cnc4cnc(C(F)F)cn34)n2)c1` [IV-157, 2-(3-(2-(6-(Difluoromethyl)imidazo[1,2-a]pyrazin-3-yl)pyrimidin-4-yl)phenyl)acetonitrile], the Ki at GCN2 kinase lay within 0.1 to 1 µM. The compound further gave an IC50 in experiment [1] above 5 µM.

`NCc1cccc(-c2ccnc(-c3cnc4cnc(C(F)F)cn34)n2)c1` [IV-159, (3-(2-(6-(Difluoromethyl)imidazo[1,2-a]pyrazin-3-yl)pyrimidin-4-yl)phenyl)methanamine] showed a Ki at GCN2 kinase of 0.1 to 1 µM. The compound also registered an IC50 in experiment [1] above 5 µM.

Consider `Oc1cccc(-c2ccnc(-c3cnc4cnc(C(F)F)cn34)n2)c1` [IV-161, 3-(2-(6-(Difluoromethyl)imidazo[1,2-a]pyrazin-3-yl)pyrimidin-4-yl)phenol], for which the Ki on GCN2 kinase lay in the range of 0.1 to 1 µM. This compound showed an IC50 in experiment [1] above 5 µM.

Turning to `OCc1cccc(-c2ccnc(-c3cnc4cnc(C(F)F)cn34)n2)c1` [IV-162, (3-(2-(6-(Difluoromethyl)imidazo[1,2-a]pyrazin-3-yl)pyrimidin-4-yl)phenyl)methanol], at GCN2 kinase, the Ki lay within 0.1 to 1 µM. Further, in experiment [1], the half-maximal inhibitory concentration (IC50) is above 5 µM.
